Laboratory results taken from patent US20140178318A1, “NOVEL COMPOUNDS” (DSM IP ASSETS B.V., priority 2009, published 2014).

Assay: Comparative example: solubility of BMDBM in 1:1 mixture of C12-15 alkyl benzoate and other UV-filter
Description: Where necessary the mixture was centrifuged in order to obtain a clear supernatant.

Solubility of BMDBM in C12-15 alkyl benzoate/UV-filter 1:1 (200 mg BMDBM with 1000 mg of 1:1 mixture, supernatant by HPLC after 1 month at RT): 3 wt.-%
Δ solubility related to cosmetic solvent (BMDBM) (C12-15 alkyl benzoate/UV-filter 1:1): −4 wt.-%
Δ solubility of BMDBM (C12-15 alkyl benzoate/UV-filter 1:1 versus C12-15 alkyl benzoate): −11 wt.-%
Structure (SMILES): CCCCC(CC)COc1ccc(-c2nc(-c3ccc(OC)cc3)nc(-c3ccc(OCC(CC)CCCC)cc3O)n2)c(O)c1 (stereo not drawn) [BEMT, bis-ethylhexyloxyphenol methoxyphenyl triazine]
